{"source": "patent US20210290576A1", "about": "“STRUCTURALLY MODIFIED FATTY ACIDS FOR IMPROVING GLYCEMIC CONTROL AND TREATING INFLAMMATORY BOWEL DISEASE” (NORTHSEA THERAPEUTICS B.V., priority 2018, published 2021)", "key": {"[1]": {"tested_on": "active GLP-1", "assay": "Active GLP-1 during an oral glucose tolerance test (OGTT) and at 24 h in lean male SPD rats", "type": "in vivo, Sprague-Dawley (SPD) rats", "settings": "in combination with DPP4 inhibitor (linagliptin); Compound A 74 mg/kg, Compound B 84 mg/kg, two oral doses", "protocol": "Evaluation of the Acute Effects of Compound a and Compound B Upon Active GLP-1 wconcentrations during an oral glucose tolerance test (OGTT) and at 24 h in lean male SPD Rats\nTo establish the acute effects of oral administration of Compound A and Compound B upon active GLP-1 and insulin concentrations, lean (about 300 g) male Sprague-Dawley (SPD) rats were divided into groups (n=6-8) and fed 74 and 84 mg/kg body weight of Compound A or Compound B respectively, either with or without concurrent administration of a dipeptidyl peptidase 4 (DPP-4) inhibitor 60 minutes prior to an oral glucose tolerance test (OGTT) as outlined below. Parallel groups receiving either corn oil alone (corn oil+vehicle, n=10) or corn oil and a DPP-4 inhibitor (“DPP-4 i”) (corn oil+(DPP-4 i), n=10) were included as controls. The DPP-4 inhibitor was linagliptin.\nA second oral dose of 74 and 84 mg/kg bodyweight of Compound A or Compound B respectively was administered at 240 minutes and ad lib feeding was initiated. A second dose of DPP-4 inhibitor was administered at 480 mins prior to lights out. Blood samples were collected at 24 h for measurement of active GLP-1 and insulin. All values are mean, figures depict mean values (SEM)."}, "[2]": {"assay": "Intestinal tissue distribution of radioactivity by quantitative whole-body autoradiography (QWBA)", "type": "in vivo, male albino rats", "settings": "single oral 50 mg/kg [14C]-Compound B", "protocol": "Biological Example 7. Concentrations of Radioactivity in Intestinal Segments of Male Albino Rats after a Single Oral Administration of [14C]-Compound B at a Nominal Dose Level of 50 mg/kg Body Weight\nThis study was conducted to determine the intestinal tissue distribution of radioactivity in male albino rats following a single oral administration of [14C]-Compound B using quantitative whole-body autoradiography (QWBA). The tissue distribution in rats following a single oral dose of [14C]-Compound B at 50 mg/kg (Ca 5 MBq/kg) was studied by QWBA analysis up to 168 hours after dosing."}, "[3]": {"assay": "Excretion balance: recovery of radioactivity in excreta", "type": "in vivo, male albino rats", "settings": "single oral 50 mg/kg [14C]-Compound B", "protocol": "Biological Example 8. Recovery of Radioactivity in the Excreta of Male Albino Rats after a Single Oral Administration of [14C]-Compound B at a Nominal Dose Level of 50 mg/kg Body Weight\nTo assess Compound B clearance via urine versus feces, the excretion pattern of a single oral dose of [14C]-Compound B was determined in male albino rats. […] The total excretion of radioactivity following oral administration was >95% within the first 48 hours. Excretion via the urine accounted for 12% of the administered dose. […]"}, "[4]": {"tested_on": "DSS-induced colitis mice", "assay": "DSS-induced colitis mouse model (body weight, colon length, survival, histology)", "type": "in vivo, C56BL/6J mouse", "settings": "for colon length compared to control: 7 days DSS", "from_the_text": "Evaluation of Effects of Compound B on Intestinal Inflammation in DSS-Induced Colitis Mice\nThe dextran sodium sulphate-induced (DSS)-induced colitis model is well known in the art as a reproducible chemical induction of intestinal inflammation animal model. See, e.g., Eichele et al., World J Gastroenterol, 2017, 23(33):6016-6029; Randhawa et al., Korean J. Physiol. Pharmacol. (2014) 18:279-288; Jurjus et al., J. Pharmacol. Toxicol., Methods, 2004, 50:81-92; Gaudio et al., Dig. Dis. Sci., 1999, 44:1458-1475. The DSS-induced colitis model morphologically and symptomatically resembles epithelial damage seen in human IBD, and thus has become the most extensively employed experimental model of intestinal inflammation. Okayasu et al., Gastroenterology, 1990, 98:694-702; Kawada et al., World J. Gastroenterol. 2007, 13:5581-5593. The DSS-induced colitis model is most similar to ulcerative colitis in humans, but also has many similarities to Crohn's disease.\nDSS is a water soluble, negatively charged sulfated polysaccharide with a highly variable molecular weight ranging from 5 to 1400 kDa. Murine colitis results from administration of about 1% to 3% DSS to the drinking water of a mouse strain susceptible to DSS-induced colitis. Without being bound by theory, the sulfated polysaccharide may not directly induce intestinal inflammation, but may instead act as a direct chemical toxin to colonic epithelium resulting in epithelial cell injury. It is thought that DSS disrupts the intestinal epithelial monolayer lining, leading to the entry of luminal bacteria and associated antigens into the mucosa and allowing the dissemination of proinflammatory intestinal contents into underlying tissue. […] Perse et al., J. Biomed. Biotechnol., 2012:718617.\nThe C56BL/6J mouse is a strain susceptible to DSS-induced colitis. To evaluate the efficacy and dosage of Compound B in treatment of DSS-induced colitis, inflammation was induced in 30 9-week old C56BL/6J mice by adding 1.5% DSS to the drinking water for 7 days. The mice were fed a standard chow diet that consisted of 30 weight percent wheat. The mice were divided into three groups of 10, and for each day of DSS administration each group was administered via oral gavage either (1) 100 μL corn oil per day (Control), (2) 126 mg/kg Compound B (dissolved in 100 μL corn oil) per day (“Compound B—Low” or “Compound B—L”), or (3) 252 mg/kg Compound B (dissolved in 100 μL corn oil) per day (“Compound B—High” or “Compound B—H”). Following the 7-day period of DSS induction, mice were sacrificed and their intestinal tissue was used for histopathological and gene expression analysis.\nTo assess the efficacy of Compound B in the treatment of DSS-induced colitis in mice, the body weight of mice was monitored. Weight loss is an indicator of colitis severity.\nTo assess the efficacy of Compound B in the treatment of DSS-induced colitis in mice, colon length of test mice was measured. Colon length correlates inversely with inflammation.\n50% (n=5) of untreated mice in the control group were alive 7 days after colitis was induced, compared to 90% (n=9) of mice treated with the low dose of Compound B, and 100% (n=10) of mice treated with the high dose of compound B. Deaths in the control group were due to sepsis and severe colon inflammation. Thus, Compound B has a statistically significant effect on survival rate in colitis mice.\nHistopathological analysis was performed on sections of formalin-fixed paraffin embedded tissue after hematoxylin and eosin (H&E) staining. Colonic samples were analyzed by histopathology for assignment of scores for colitis activity as described in Neurath et al., J. Exp. Med., 2002, 195:1129-1143. Briefly, the degrees of inflammation and epithelial and mucosal injury on microscopic cross-sections of the colon were graded semi-quantitatively from 0 to 4. […]"}, "[5]": {"tested_on": "atherogenic lipids", "settings": "APOE*3.CETP mice; cited from earlier work"}}}
{"smiles": "CC/C=C\\C/C=C\\C/C=C\\C/C=C\\C/C=C\\CCCCSC(CC)(CC)C(=O)O", "note": "[Compound B, 2-ethyl-2-((5Z,8Z,11 Z,14Z,17Z)-icosa-5,8,11,14,17-pentaenylthio)butanoic acid]", "values": [{"measurement": "active GLP-1 concentrations at 24 h versus corn oil+vehicle", "setting": "[1]", "result": "significantly (p<0.01) increased"}, {"measurement": "accumulation in the caecum (time span)", "setting": "[2]", "result": "from 4 hours onwards to 1 day"}, {"measurement": "accumulation in the large intestine (time)", "setting": "[2]", "result": 8, "unit": "h"}, {"measurement": "time of peak concentrations in the small intestinal mucosa", "setting": "[2]", "result": 4, "unit": "h"}, {"measurement": "% Recovery of Administered Dose, Mean total radioactivity", "setting": "[3]; 0-168 h, n = 3", "result": 101, "unit": "%"}, {"measurement": "total excretion of radioactivity within the first 48 hours", "setting": "[3]", "result": "> 95", "unit": "%"}, {"measurement": "difference in weight loss, control vs. treated", "setting": "[4]; 126 mg/kg per day (Compound B—Low)", "result": "statistically significant after 7 days"}, {"measurement": "colon length compared to control", "setting": "[4]; 126 mg/kg per day (low dose)", "result": "significant increase in colon length"}, {"measurement": "difference in weight loss, control vs. treated", "setting": "[4]; 252 mg/kg per day (Compound B—High)", "result": "statistically significant after 6 days"}, {"measurement": "histological cross-sections of colon: morphology", "setting": "[4]; 252 mg/kg per day (high dose)", "result": "almost complete rescue"}, {"measurement": "histological scores of colonic samples versus untreated mice", "setting": "[4]; 252 mg/kg per day (high dose)", "result": "significantly lower"}, {"measurement": "inflammation and epithelial and mucosal injury versus untreated mice", "setting": "[4]; 252 mg/kg per day (high dose)", "result": "lower"}, {"measurement": "colon length compared to control", "setting": "[4]; 252 mg/kg per day (high dose)", "result": "significant increase in colon length"}, {"measurement": "histological cross-sections of colon: inflammatory infiltrates, edema, villus architecture", "setting": "[4]; 126 and 252 mg/kg per day", "result": "dose-dependent attenuation of inflammatory infiltrates and edema"}, {"measurement": "weight loss compared to the control group", "setting": "[4]; 126 and 252 mg/kg per day oral gavage, 1.5% DSS for 7 days", "result": "dose-dependent reduction in weight loss"}, {"measurement": "atherogenic lipids", "setting": "[5]", "result": "significantly reduce atherogenic lipids"}]}
